Test results reported in patent US5132309A, “2-oxo-3,8-diazaspiro(4,5)decane derivatives, pharmaceutical compositions containing them and process for preparing same” (Richter Gedeon Vegyeszeti Gyar RT, priority 1989, dated 1992).
Where two headings read alike, the source gives them in different places.

What was measured:
[1] = Cataleptogenic (catalepsy-inducing) effect; set-up: species or system male Wistar rats; details: in vivo; rat; oral; hourly for 6 hours
[2] = system: apomorphine-induced locomotor hyperactivity and stereotypy; assay: Inhibition of the apomorphine-induced locomotor hyperactivity and stereotypy; assay type: in vivo, male Hannover-Wistar rats; details: rat, 2.5 mg/kg oral; for Inhibition of apomorphine-induced LMA as percentage of the control / Inhibition of apomorphine-induced stereotypy as percentage of the control: apomorphine hydrochloride 1 mg/kg s.c.; for Inhibition of apomorphine-induced LMA as percentage of the control: control LMA 100% (438.9 ± 54.7 sec); for Inhibition of apomorphine-induced stereotypy as percentage of the control: control stereotypy 100% (105.0 ± 13.7 sec)
From the text: Apomorphine induces a characteristic syndrome in rats and various animal species which manifests itself in the hyperactivity and stereotypic behavior of the animals [J. Pharm. Pharmacol. 19 627 (1957); J. Neurol. Transm. 40, 97 (1977); J. Psychiat. Res. 11, 1 (1974); J. Pharm. Pharmacol. 25, 1003 (1973); as well as Nature 263, 338 (1976)].
Male Hannover-Wistar rats weighing 160 to 180 g were used in these examinations. The test compounds were suspended in a 2% Tween 80 solution and diluted to the desired concentration by adding distilled water. The corresponding dose was administered to rats in a volume of 5 ml/kg. The control group was treated with the above solution containing no test substance.
One hour following the treatment with 2.5 mg/kg oral dose of the test compound, the rats were subcutaneously treated with 1 mg/kg of apomorphine hydrochloride.
At 15 minutes after administration of apomorphine, the animals were placed in a 5-channel behavior-observing device controlled by a microprocessor and the coordinated and stereotypic motion of the animals were measured for 15 minutes. Chlozapine (chemically 8-chloro-11-(4-methyl-1-piperazinyl)-5H-dibenzo[b,e][1,4]diazepine) was used in a dose of 2.5 mg/kg as reference drug. The results are given as percentages of the control for both motion types.

[3] = system: triethyl tin chloride-induced cerebral edema; assay: Inhibition of the cerebral (brain) edema induced by triethyl tin chloride; assay type: in vivo, male Hannover-Wistar rats; details: rat, TET 2.5 mg/kg daily for 5 days
Procedure: The cerebral edema-inhibiting effect of the compounds was investigated by the following method [Ann. Pharm. Fr. 42, 431 (1984)].
A group consisting of 7 male Hannover-Wistar rats weighing 180 to 200 g were daily treated with 2.5 mg/kg of triethyl tin chloride (hereinafter TET) for 5 days to induce a cerebral edema. [TET (Merck-Schuchardt, Darmstadt, FRG) was dissolved in distilled water under stirring and the animals were orally treated with the stirred solution daily at 7 a.m.].
The reference and test compounds were homogenized in a 0.5% by weight carboxymethylcellulose solution by using an Ultra Turrax stirrer and the stirring was continued during the administration, too. These compounds were orally given first 1 hour, then 6 hours after the TET treatment in a volume of 0.5 ml/100 g of body-weight in both cases. The control group received the solvent of TET (i.e. distilled water) and the carrier of the compounds (i.e. 0.5% by weight carboxymethylcellulose solution) at the same intervals and volumes as given above.
On the 5th day of treatments, 2 hours following the last administration of the test compound, the animals were decapitated, the whole brain was rapidly taken out, washed with cold, 0.9% by weight sodium chloride solution and the moisture was removed by filter paper. The wet weights of the brains were weighed with an accuracy of one tenth mg and placed onto an aluminum foil previously weighed. Subsequently, the brains were dried at 90° C. for 92 hours, then the total (gross) weight (i.e. the dry brain weight together with the weight of the aluminum foil) was determined. The water content of the brain and the change thereof, respectively, were calculated from the difference of the wet and dry brain weight. The change was expressed as percentage of the protection as follows: [formula] wherein (TET-Ko) means the mean water content (%) of the brain of animals treated with TET and carrier;
(TET-V) means the mean water content (%) of the brain of animals treated with TET and test compound;
(Veh-Ko) means the mean water content (%) of the brain of animals treated with distilled water and carrier.
The deviations of changes in the water content and dry weight of the brain were compared by using Student's "t" trial. Also here, piracetam and dihydroergotoxine were used as reference drugs.

hypobaric hypoxia = assay: Inhibition of the hypobaric hypoxia (survival time); assay type: in vivo, male spontaneously hypertensive rats; details: for ED50: po, 1 h, read-out: Protection against hypobaric hypoxia, ED50
Procedure: Male, spontaneously hypertensive rats weighing 200 to 220 g were used in these investigations. Groups consisting of 3 animals each were placed into a desiccator of 6 liters by volume, the pressure was decreased to 170 Hgmm (22.66 kPa) within 20 seconds and continuously maintained at the same level. One hour before the examination, the animals were treated with various oral doses of the test compounds. The ED50 values (i.e. the doses prolonging the survival time of the test animals by 50% in comparison to that of the control group treated with placebo) were determined and summarized in Table 3.

hypoxic memory damage = assay: Inhibition of the hypoxic damage of the memory (nootropic effect), conditioned avoidance in Shuttle-box; assay type: in vivo, male spontaneously (genetically) hypertensive rats; details: rat, hypoxia 6% oxygen
From the text: Male, spontaneously (genetically) hypertensive rats weighing 210 to 230 g were used in these examinations. The active avoiding behavior was developed in a 6-channel automated Shuttle-box by a training consisting of 30 cycles during 3 days. Within a single cycle an intermittent light stimulus of 1 Hz frequency for 15 seconds as conditioned stimulus and an electric stimulus of 0.8 mA for 10 seconds as unconditioned stimulus were used with an intersignal time of 15 seconds.
On the 4th day, one hour before the experiment the animals were treated with a 10 mg/kg oral dose of the test compounds. Two control groups were used in these examinations, one of which was treated with placebo whereas the other one was treated with placebo and exposed to hypoxia. Piracetam (chemically 2-oxo-1-pyrrolidineacetic acid amide) and dihydroergotoxine were used as reference drugs. The performance of the animals was examined under hypoxic conditions in such a way that the boxes were flown through at a rate of 200 ml/min/box with a gaseous mixture containing 6% by volume of oxygen and 94% by volume of nitrogen. The number of the conditioned avoidance responses (as abbreviated hereinafter: CAR) was counted. The protective effect of the compounds against the hypoxic memory damage was calculated by using the following formula: [formula] wherein
protective effect means the effect inhibiting the hypoxic memory damage expressed as percentage; and
CAR x means the average value of the number of conditioned responses in the animal group given.
The protective effect of the compounds against the hypoxic memory damage expressed as percentage of the control is shown in Table 2.

| Compound | ED50 at 6 h [1] | Inhibition of apomorphine-induced LMA as percentage of the control [2] | Inhibition of apomorphine-induced stereotypy as percentage of the control [2] | Protection (brain water content, cerebral edema) ([3]; dose 100 umol/kg oral) | other results |
| --- | --- | --- | --- | --- | --- |
| CC1(O)N(Cc2ccccc2)C(=O)OC12CCN(CCC=C(c1ccc(F)cc1)c1ccc(F)cc1)CC2.Cl (stereo not drawn) [B, 3-benzyl-8-[4,4-bis(4-fluorophenyl)-3-butenyl]-4-hydroxy-4-methyl-2-oxo-1-oxa-3,8-diazaspiro[4,5]decane hydrochloride] | > 300 mg/kg | -25 percentage of the control | +15 percentage of the control |  |  |
| CC1(O)NC(=O)OC12CCN(CCC=C(c1ccc(F)cc1)c1ccc(F)cc1)CC2.Cl (stereo not drawn) [E, 8-[4,4-bis(4-fluorophenyl)-3-butenyl]-4-hydroxy-4-methyl-2-oxo-1-oxa-3,8-diazaspiro[4,5]decane hydrochloride] |  |  |  | 114.3% |  |
| CN1CCN(C2=Nc3cc(Cl)ccc3Nc3ccccc32)CC1 [Clozapine, 8-chloro-11-(4-methyl-1-piperazinyl)-5H-dibenzo[b,e][1,4]diazepine, reference compound] | 31.9 mg/kg | -25 percentage of the control | +11 percentage of the control |  | inhibition of stereotypy (in words) [2]: did not inhibit the stereotypy |
| NC(=O)CN1CCCC1=O [PIR, 2-oxo-1-pyrrolidineacetic acid amide] |  |  |  | 16.7% | ED50 (hypobaric hypoxia; Rattus norvegicus): 293 mg/kg; Protection against amnesia (hypoxic memory damage; 500 mg/kg p.o.): 85% |
| CC(C)(C)N1C(=O)OC2(CCN(CCC=C(c3ccc(F)cc3)c3ccc(F)cc3)CC2)C1(C)O.Cl (stereo not drawn) [C, 3-tert-butyl-8-[4,4-bis(4-fluorophenyl)-3-butenyl]-4-hydroxy-4-methyl-2-oxo-1-oxa-3,8-diazaspiro[4,5]decane hydrochloride] |  |  |  | 88.1% | Protection (brain water content, cerebral edema) ([3]; dose 25 umol/kg oral): 97.9%; Protection (brain water content, cerebral edema) ([3]; dose 50 umol/kg oral): 102.0%; ED50 (hypobaric hypoxia; rat, 170 Hgmm, dose prolonging survival time by 50% vs placebo control): 23.7 mg/kg; Protection against amnesia (hypoxic memory damage; 10 mg/kg p.o.): 64% |
| CN1C(=O)OC2(CCN(CCC=C(c3ccc(F)cc3)c3ccc(F)cc3)CC2)C1(C)O.Cl (stereo not drawn) [A, 8-[4,4-bis(4-fluorophenyl)-3-butenyl]-3,4-dimethyl-4-hydroxy-2-oxo-1-oxa-3,8-diazaspiro[4,5]decane hydrochloride] | > 300 mg/kg | -40 percentage of the control | 0 percentage of the control |  |  |
| COc1ccc(CCN2C(=O)OC3(CCN(CCC=C(c4ccc(F)cc4)c4ccc(F)cc4)CC3)C2(C)O)cc1OC.O=C(O)/C=C\C(=O)O (stereo not drawn) [D, 8-[4,4-bis(4-fluorophenyl)-3-butenyl]-3-[2-(3,4-dimethoxyphenyl)ethyl]-4-hydroxy-4-methyl-2-oxo-1-oxa-3,8-diazaspiro[4,5]decane maleate] |  |  |  | 102.2% |  |
| dihydroergotoxine [DHE] |  |  |  |  | Protection (brain water content, cerebral edema) ([3]; dose 30 mg/kg oral): 25.6%; survival achieved at the high dose of DHE (hypobaric hypoxia; rat, 50.0 mg/kg p.o., hypobaric hypoxia): 40%; Protection against hypobaric hypoxia, ED50 (hypobaric hypoxia; rat, 170 Hgmm, dose prolonging survival time by 50% vs placebo control, 60 min): 50.0 mg/kg p.o.; Protection against amnesia (hypoxic memory damage; 10 mg/kg p.o.): 63% |
